This passage reports IC50 results from patent publication US8969383B2, “Picolinamide derivatives as TTX-S blockers” (RaQualia Pharma Inc., priority 2009, dated 2015).

As a reminder, the IC50 is the point on the concentration scale where inhibition reaches its midpoint.

The structures appear in SMILES notation.

One test concerns the target T1, human Nav1.3 (Homo sapiens, UniProt Q9NY46).
T1 construct: expressed in transfected cells; host or cells: HEK293
Kind of test: FRET assay, human Nav1.3 channels expressed in HEK293 cells. Type of test: cell-based. The note with it: HEK293 cells expressing human NaV1.3, veratridine-opened channels. Here is the method: (§1) The ability of the picolinamide derivatives of the formula (I) to inhibit the NaV1.3,Nav1.7 and Nav1.5 channels was measured by FRET assay and electrophysiology assay described below.
(§2) This screen is used to determine the effects of compounds on human Nav1.3, human Nav1.7, and human Nav1.5 channels, utilising the cell imaging technology by Hamamatsu Photonics's Functional Drug Screening System (FDSS). This experiment is based on FRET (Fluorescence Resonance Energy Transfer) and uses two fluorescent molecules. The first molecule, Oxonol (DiSBAC2(3)), is a highly fluorescent, negatively charged, hydrophobic ion that “senses” the trans-membrane electrical potential. In response to changes in membrane potential, it can rapidly redistribute between two binding sites on opposite sides of the plasma membrane. The voltage dependent redistribution is transduced into a ratiometric fluorescent readout via a second fluorescent molecule (Coumarin (CC2-DMPE)) that binds specifically to one face of the plasma membrane and functions as a FRET partner to the mobile voltage-sensing ion. To enable the assay to work, the channels have to be pharmacologically held in the open state. This is achieved by treating the cells with veratridine.
Each HEK293 cells expressing human NaV1.3 channels and HEK293 cells expressing human NaV1.5 channels were grown in T225 flasks, in a 5% CO2 humidified incubator to about 80% confluence. Media composition consisted of Dulbecco's Modified Eagle Medium (high glucose), 10% fetal calf serum (FCS), 100 units/ml Penicillin, 100 microgram/ml Streptomycin and 500 microgram/ml Geneticine.
(§3) • Seed each cell lines (1.5×10^4 cells/well) into poly-D-lysine coated 384-well plates prior to experimentation. • Incubate at 37° C. in 5% CO2 for 24 hours. • Wash each well with buffer #1 (140 mM NaCl, 4.5 mM KCl, 10 mM D-Glucose, 2 mM CaCl2, 1 mM MgCl2, 10 mM HEPES, pH 7.4 adjusted with NaOH) twice using plate washer. • Add 1st loading solution containing 5 μM CC2-DMPE and 0.02% Pluronic F-127 in buffer #1. • Incubate the plate at room temperature in dark for 0.5 hours. • Wash each well with buffer #2 (160 mM Choline, 10 mM D-Glucose, 0.1 mM CaCl2, 1 mM MgCl2, 10 mM HEPES, pH 7.4 adjusted with KOH) twice using plate washer. • Add 2nd loading solution containing 15 μM DiSBAC2(3), 0.5 mM VABSC-1, 10 μM veratridine and 0.004% Pluronic F-127 in buffer #2. • Add compound solutions into the assay plate and leave the plate for 30 minutes under the dark at room temperature. • Measure by FDSS.
(§4) The data was analyzed and reported as normalized ratios of intensities measured in the 465 nm and 575 nm channels. The process of calculating these ratios was performed as follows:
(§5) “FI465B”=the mean of fluorescence intensity as baseline (before Na+ ligand addition) at 465 nm
(§6) “FI575B”=the mean of fluorescence intensity as baseline (before Na+ ligand addition) at 575 nm
(§7) “FI465Max”=maximum fluorescence intensity at 465 nm after Na+ stimulation
(§8) “FI575 Min”=minimum fluorescence intensity at 575 nm after Na+ stimulation
(§9) This analysis was performed using a computerized specific program designed for FDSS generated data. Fluorescence ratio values were plotted using XLfit to determine an IC50 value for each compound.

For another test, the target named is T2, human Nav1.7 (Homo sapiens, UniProt Q15858).
T2 construct: expressed in transfected cells; host or cells: CHO
Kind of test: FRET assay, human Nav1.7 channels expressed in CHO cells. Type of test: cell-based. To be noted: CHO cells expressing human NaV1.7, veratridine-opened channels. The procedure:
as §1, §2
CHO cells expressing human NaV1.7 channels were grown in T225 flasks, in a 5% CO 2 humidified incubator to about 80% confluence. Media composition consisted of HAM/F12 with Glutamax 1.10% fetal calf serum (FCS), 100 units/ml Penicillin and 100 microgram/ml Hygromycin.
as §3, §4, §5, §6, §7, §8, §9

T2 sequence (Q15858 whole entry): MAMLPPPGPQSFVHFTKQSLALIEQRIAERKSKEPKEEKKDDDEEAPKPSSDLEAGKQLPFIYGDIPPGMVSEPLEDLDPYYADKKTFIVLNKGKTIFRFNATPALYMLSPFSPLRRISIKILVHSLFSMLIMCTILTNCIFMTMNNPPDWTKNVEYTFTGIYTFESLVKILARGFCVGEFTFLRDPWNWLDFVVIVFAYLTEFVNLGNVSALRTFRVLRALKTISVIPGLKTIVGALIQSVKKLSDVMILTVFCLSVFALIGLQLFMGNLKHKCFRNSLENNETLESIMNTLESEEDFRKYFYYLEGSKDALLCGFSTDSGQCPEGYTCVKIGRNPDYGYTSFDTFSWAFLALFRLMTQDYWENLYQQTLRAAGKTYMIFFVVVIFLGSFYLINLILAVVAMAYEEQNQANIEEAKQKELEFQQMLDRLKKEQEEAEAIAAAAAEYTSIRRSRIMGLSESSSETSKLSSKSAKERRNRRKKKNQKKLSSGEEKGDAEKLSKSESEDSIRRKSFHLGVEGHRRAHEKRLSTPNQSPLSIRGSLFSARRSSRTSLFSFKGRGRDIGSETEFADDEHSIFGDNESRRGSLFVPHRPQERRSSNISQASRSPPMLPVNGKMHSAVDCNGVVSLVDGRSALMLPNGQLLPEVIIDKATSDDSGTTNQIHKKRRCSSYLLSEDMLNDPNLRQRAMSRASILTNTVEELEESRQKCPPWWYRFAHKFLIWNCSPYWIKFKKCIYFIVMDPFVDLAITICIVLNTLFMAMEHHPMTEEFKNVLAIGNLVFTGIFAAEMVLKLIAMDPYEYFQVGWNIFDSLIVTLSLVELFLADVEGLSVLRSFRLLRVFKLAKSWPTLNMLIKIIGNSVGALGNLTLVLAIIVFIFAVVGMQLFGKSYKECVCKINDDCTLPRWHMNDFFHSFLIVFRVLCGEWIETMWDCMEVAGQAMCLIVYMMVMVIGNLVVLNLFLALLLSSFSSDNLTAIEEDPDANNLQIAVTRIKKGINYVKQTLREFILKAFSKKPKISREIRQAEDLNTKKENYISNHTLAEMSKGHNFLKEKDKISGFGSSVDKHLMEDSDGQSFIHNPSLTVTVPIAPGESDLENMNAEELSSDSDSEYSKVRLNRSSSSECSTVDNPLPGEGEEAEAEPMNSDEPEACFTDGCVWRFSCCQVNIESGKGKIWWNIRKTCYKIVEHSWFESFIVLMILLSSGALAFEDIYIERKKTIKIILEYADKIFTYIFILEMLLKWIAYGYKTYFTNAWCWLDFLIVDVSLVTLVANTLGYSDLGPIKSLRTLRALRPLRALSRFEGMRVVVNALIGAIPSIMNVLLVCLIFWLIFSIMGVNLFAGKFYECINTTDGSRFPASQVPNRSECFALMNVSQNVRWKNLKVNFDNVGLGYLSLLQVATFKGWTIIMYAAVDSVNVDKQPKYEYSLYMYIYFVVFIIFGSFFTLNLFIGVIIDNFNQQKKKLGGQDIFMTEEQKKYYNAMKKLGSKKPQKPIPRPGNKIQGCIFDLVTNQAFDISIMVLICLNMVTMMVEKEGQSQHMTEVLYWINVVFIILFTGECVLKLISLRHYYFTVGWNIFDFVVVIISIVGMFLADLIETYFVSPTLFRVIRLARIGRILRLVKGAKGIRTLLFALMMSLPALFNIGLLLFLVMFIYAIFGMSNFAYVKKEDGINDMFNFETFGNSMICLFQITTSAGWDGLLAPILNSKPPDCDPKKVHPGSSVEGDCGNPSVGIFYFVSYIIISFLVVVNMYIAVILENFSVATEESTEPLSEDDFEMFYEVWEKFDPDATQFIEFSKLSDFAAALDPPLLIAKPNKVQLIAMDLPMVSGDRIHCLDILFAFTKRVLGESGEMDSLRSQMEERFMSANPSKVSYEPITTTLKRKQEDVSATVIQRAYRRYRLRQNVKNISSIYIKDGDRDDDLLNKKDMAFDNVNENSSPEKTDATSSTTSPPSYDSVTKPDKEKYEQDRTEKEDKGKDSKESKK
T1 sequence (Q9NY46 whole entry): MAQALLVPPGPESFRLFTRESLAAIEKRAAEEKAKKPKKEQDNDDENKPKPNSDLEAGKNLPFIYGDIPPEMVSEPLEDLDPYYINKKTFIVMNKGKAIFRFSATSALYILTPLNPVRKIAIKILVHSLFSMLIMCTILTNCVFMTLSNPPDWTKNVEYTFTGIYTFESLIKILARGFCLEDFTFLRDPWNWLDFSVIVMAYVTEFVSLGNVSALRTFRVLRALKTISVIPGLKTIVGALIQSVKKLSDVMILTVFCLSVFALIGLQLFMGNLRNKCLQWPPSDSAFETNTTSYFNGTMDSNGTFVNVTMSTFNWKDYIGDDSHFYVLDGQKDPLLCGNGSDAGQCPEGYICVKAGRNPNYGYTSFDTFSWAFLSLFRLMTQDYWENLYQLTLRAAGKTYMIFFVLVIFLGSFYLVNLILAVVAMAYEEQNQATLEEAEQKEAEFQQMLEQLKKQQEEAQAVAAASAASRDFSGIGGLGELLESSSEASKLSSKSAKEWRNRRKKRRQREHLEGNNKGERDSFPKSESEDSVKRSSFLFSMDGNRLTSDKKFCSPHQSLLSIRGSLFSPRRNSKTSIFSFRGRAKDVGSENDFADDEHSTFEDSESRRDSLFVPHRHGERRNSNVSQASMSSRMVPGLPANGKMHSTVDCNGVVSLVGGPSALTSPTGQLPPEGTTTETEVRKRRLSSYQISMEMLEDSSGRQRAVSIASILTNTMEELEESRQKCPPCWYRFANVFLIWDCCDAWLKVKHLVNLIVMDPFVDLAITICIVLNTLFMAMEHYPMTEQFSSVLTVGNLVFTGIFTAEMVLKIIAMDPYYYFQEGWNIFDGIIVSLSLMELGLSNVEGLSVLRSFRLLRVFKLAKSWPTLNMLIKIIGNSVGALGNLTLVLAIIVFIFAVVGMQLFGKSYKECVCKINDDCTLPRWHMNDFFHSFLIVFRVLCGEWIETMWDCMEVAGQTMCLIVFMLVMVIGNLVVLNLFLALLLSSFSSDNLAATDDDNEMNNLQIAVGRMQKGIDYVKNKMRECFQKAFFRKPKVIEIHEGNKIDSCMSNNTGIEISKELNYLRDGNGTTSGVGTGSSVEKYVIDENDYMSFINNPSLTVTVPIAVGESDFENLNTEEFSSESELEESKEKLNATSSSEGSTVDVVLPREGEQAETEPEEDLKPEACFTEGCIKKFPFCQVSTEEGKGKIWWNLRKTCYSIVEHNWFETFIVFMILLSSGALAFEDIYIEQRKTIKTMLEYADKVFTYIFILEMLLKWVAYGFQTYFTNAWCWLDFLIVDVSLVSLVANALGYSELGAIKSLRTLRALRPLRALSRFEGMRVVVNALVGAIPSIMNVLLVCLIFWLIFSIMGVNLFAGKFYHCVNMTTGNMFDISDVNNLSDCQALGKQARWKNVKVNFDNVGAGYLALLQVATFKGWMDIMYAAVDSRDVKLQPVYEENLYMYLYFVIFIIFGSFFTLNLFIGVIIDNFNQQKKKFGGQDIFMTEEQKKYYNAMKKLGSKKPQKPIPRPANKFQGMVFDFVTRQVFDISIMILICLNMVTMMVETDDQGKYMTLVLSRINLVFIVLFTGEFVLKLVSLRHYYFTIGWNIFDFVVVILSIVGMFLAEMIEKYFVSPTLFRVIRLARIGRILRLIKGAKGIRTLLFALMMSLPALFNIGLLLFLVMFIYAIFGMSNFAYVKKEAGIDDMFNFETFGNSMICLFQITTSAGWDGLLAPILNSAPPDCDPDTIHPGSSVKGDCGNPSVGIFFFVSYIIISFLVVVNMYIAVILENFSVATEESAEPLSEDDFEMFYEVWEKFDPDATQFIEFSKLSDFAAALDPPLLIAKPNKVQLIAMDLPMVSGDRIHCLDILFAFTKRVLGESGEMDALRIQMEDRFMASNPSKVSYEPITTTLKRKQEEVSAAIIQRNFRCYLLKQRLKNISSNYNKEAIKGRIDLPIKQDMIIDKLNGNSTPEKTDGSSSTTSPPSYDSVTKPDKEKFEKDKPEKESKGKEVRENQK

In the case of `O=C(Nc1ccon1)c1ncccc1OC[C@H]1CCCN1C(=O)[C@H]1CC[C@H](C(F)(F)F)CC1` [Example 54, N-(isoxazol-3-yl)-3-(((R)-1-(trans-4-(trifluoromethyl)cyclohexanecarbonyl)pyrrolidin-2-yl)methoxy)picolinamide], the half-maximal inhibitory concentration (IC50) against human Nav1.3 and at human Nav1.7 was ≤ 500 nM in each case.
Consider `NC(=O)c1ncccc1OC[C@H]1CCCN1C(=O)c1ccc(OCC(F)(F)F)cc1` [Example 21, (R)-3-((1-(4-(2,2,2-trifluoroethoxy)benzoyl)pyrrolidin-2-yl)methoxy)picolinamide], for which the concentration for half-maximal inhibition (IC50) on human Nav1.3 and on human Nav1.7 was ≤ 500 nM throughout.
For the compound `O=C(Nc1ncco1)c1ncccc1OC[C@@H]1CCCN1C(=O)[C@H]1CC[C@@H](C(F)(F)F)CC1` [Example 62, N-(oxazol-2-yl)-3-(((S)-1-(cis-4-(trifluoromethyl)cyclohexanecarbonyl)pyrrolidin-2-yl)methoxy)picolinamide], the 50% inhibitory concentration (IC50) on human Nav1.3 and against human Nav1.7 was ≤ 500 nM in each case.
`NC(=O)c1ncc(Cl)cc1OC[C@H]1CCCN1C(=O)[C@H]1CC[C@@H](C(F)(F)F)CC1` [Example 29, 5-chloro-3-(((R)-1-(cis-4-(trifluoromethyl)cyclohexanecarbonyl)pyrrolidin-2-yl)methoxy)picolinamide]: the IC50 against human Nav1.3 and at human Nav1.7 was ≤ 500 nM throughout.
Consider `O=C(NCc1ccccn1)c1ncccc1OC[C@H]1CCCN1C(=O)[C@H]1CC[C@H](C(F)(F)F)CC1` [Example 40, N-(pyridin-2-ylmethyl)-3-(((R)-1-(trans-4-(trifluoromethyl)cyclohexanecarbonyl)pyrrolidin-2-yl)methoxy)picolinamide], for which the 50% inhibitory concentration (IC50) on human Nav1.3 and against human Nav1.7 was ≤ 500 nM throughout.
In the case of `O=C(Nc1ncco1)c1ncccc1OC[C@H]1CCCN1C(=O)[C@H]1CC[C@@H](C(F)(F)F)CC1` [Example 63, N-(oxazol-2-yl)-3-(((R)-1-(cis-4-(trifluoromethyl)cyclohexanecarbonyl)pyrrolidin-2-yl)methoxy)picolinamide], the IC50 at human Nav1.3 and on human Nav1.7 was ≤ 500 nM throughout.
For the compound `O=C(Nc1ncns1)c1ncccc1OC[C@H]1CCCN1C(=O)[C@H]1CC[C@H](C(F)(F)F)CC1` [Example 47, N-(1,2,4-thiadiazol-5-yl)-3-(((R)-1-(trans-4-(trifluoromethyl)cyclohexanecarbonyl)pyrrolidin-2-yl)methoxy) picolinamide], the IC50 against human Nav1.3 and on human Nav1.7 was ≤ 500 nM throughout.
Regarding `O=C(NCCO)c1ncccc1OC[C@H]1CCCN1C(=O)c1cccc(C(F)(F)F)c1` [Example 69, (R)-N-(2-hydroxyethyl)-3-((1-(3-(trifluoromethyl)benzoyl)pyrrolidin-2-yl)methoxy) picolinamide], the IC50 on human Nav1.3 and against human Nav1.7 was ≤ 500 nM each time.
As for `O=C(NCC1(O)CCCCC1)c1ncccc1OC[C@H]1CCCN1C(=O)[C@H]1CC[C@H](C(F)(F)F)CC1` [Example 39, N-((1-hydroxycyclohexyl)methyl)-3-(((R)-1-(trans-4-(trifluoromethyl)cyclohexanecarbonyl)pyrrolidin-2-yl)methoxy)picolinamide], the IC50 at human Nav1.3 and against human Nav1.7 was ≤ 500 nM each time.
For `NC(=O)c1ncccc1OC[C@@H]1CCCN1C(=O)[C@H]1CC[C@@H](C(F)(F)F)CC1` [Example 2, 3-(((S)-1-(cis-4-(trifluoromethyl)cyclohexanecarbonyl)pyrrolidin-2-yl)methoxy)picolinamide], the concentration for half-maximal inhibition (IC50) against human Nav1.3 and on human Nav1.7 was ≤ 500 nM each time.
`O=C(NCc1ccccc1)c1ncccc1OC[C@H]1CCCN1C(=O)[C@H]1CC[C@H](C(F)(F)F)CC1` [Example 41, N-benzyl-3-(((R)-1-(trans-4-(trifluoromethyl)cyclohexanecarbonyl)pyrrolidin-2-yl)methoxy) picolinamide]: the 50% inhibitory concentration (IC50) against human Nav1.3 and against human Nav1.7 was ≤ 500 nM each time.
`O=C(N[C@H](CO)c1ccccc1)c1ncccc1OC[C@H]1CCCN1C(=O)[C@H]1CC[C@H](C(F)(F)F)CC1` [Example 43, N-((S)-2-hydroxy-1-phenylethyl)-3-(((R)-1-(trans-4-(trifluoromethyl)cyclohexanecarbonyl)pyrrolidin-2-yl)methoxy) picolinamide]: the concentration for half-maximal inhibition (IC50) on human Nav1.3 and against human Nav1.7 was ≤ 500 nM each time.
As for `NC(=O)c1ncccc1OC[C@H]1CCCN1C(=O)COc1ccc(C(F)(F)F)cc1` [Example 18, (R)-3-((1-(2-(4-(trifluoromethyl)phenoxy)acetyl)pyrrolidin-2-yl)methoxy)picolinamide], the half-maximal inhibitory concentration (IC50) against human Nav1.3 and against human Nav1.7 was ≤ 500 nM throughout.
`COC(=O)CNC(=O)c1ncccc1OC[C@H]1CCCN1C(=O)[C@H]1CC[C@H](C(F)(F)F)CC1` [Example 35, methyl 2-(3-(((R)-1-(trans-4-(trifluoromethyl)cyclohexanecarbonyl)pyrrolidin-2-yl)methoxy)picolinamido)acetate]: the IC50 on human Nav1.3 and against human Nav1.7 was ≤ 500 nM in each case.
For the compound `NC(=O)c1ncc(Cl)cc1OC[C@H]1CCCN1C(=O)[C@H]1CC[C@H](C(F)(F)F)CC1` [Example 30, 5-chloro-3-(((R)-1-(trans-4-(trifluoromethyl)cyclohexanecarbonyl)pyrrolidin-2-yl)methoxy)picolinamide], the IC50 at human Nav1.3 and against human Nav1.7 was ≤ 500 nM throughout.
With `O=C(NCCN1CCOCC1)c1ncccc1OC[C@H]1CCCN1C(=O)c1cccc(C(F)(F)F)c1` [Example 68, (R)-N-(2-morpholinoethyl)-3-((1-(3-(trifluoromethyl)benzoyl)pyrrolidin-2-yl)methoxy) picolinamide], the 50% inhibitory concentration (IC50) at human Nav1.3 and on human Nav1.7 was ≤ 500 nM in each case.
In the case of `COCCNC(=O)c1ncccc1OC[C@H]1CCCN1C(=O)[C@H]1CC[C@H](C(F)(F)F)CC1` [Example 37, N-(2-methoxyethyl)-3-(((R)-1-(trans-4-(trifluoromethyl)cyclohexanecarbonyl)pyrrolidin-2-yl)methoxy)picolinamide], the half-inhibitory concentration (IC50) on human Nav1.3 and on human Nav1.7 was ≤ 500 nM in each case.
For `O=C(Nc1ccon1)c1ncccc1OC[C@H]1CCCN1C(=O)CC1CCC(F)(F)CC1` [Example 66, (R)-3-((1-(2-(4,4-difluorocyclohexyl)acetyl)pyrrolidin-2-yl)methoxy)-N-(isoxazol-3-yl)picolinamide], the half-inhibitory concentration (IC50) against human Nav1.3 and against human Nav1.7 was ≤ 500 nM in each case.
`O=C(NC1CCOCC1)c1ncccc1OC[C@H]1CCCN1C(=O)[C@H]1CC[C@H](C(F)(F)F)CC1` [Example 49, N-(tetrahydro-2H-pyran-4-yl)-3-(((R)-1-(trans-4-(trifluoromethyl)cyclohexanecarbonyl)pyrrolidin-2-yl)methoxy) picolinamide]: the concentration for half-maximal inhibition (IC50) against human Nav1.3 and at human Nav1.7 was ≤ 500 nM in each case.
For the compound `O=C(Nc1ccon1)c1ncccc1OC[C@H]1CCCN1C(=O)c1cc(C2CC2)on1` [Example 65], the IC50 on human Nav1.3 and at human Nav1.7 was ≤ 500 nM in each case.
With `COc1cnc(C(N)=O)c(OC[C@H]2CCCN2C(=O)[C@H]2CC[C@H](C(F)(F)F)CC2)c1` [Example 31, 5-methoxy-3-(((R)-1-(trans-4-(trifluoromethyl)cyclohexanecarbonyl)pyrrolidin-2-yl)methoxy)picolinamide], the IC50 at human Nav1.3 and on human Nav1.7 was ≤ 500 nM each time.
`NC(=O)c1ncccc1OC[C@H]1CCCN1C(=O)c1ccc(C(F)(F)F)cc1` [Example 5, (R)-3-((1-(4-(trifluoromethyl)benzoyl)pyrrolidin-2-yl)methoxy) picolinamide]: the IC50 on human Nav1.3 and against human Nav1.7 was ≤ 500 nM in each case.
